Article PMC10674865, “Identification and Pharmacological Characterization of a Low-Liability Antinociceptive Bifunctional MOR/DOR Cyclic Peptide” (Molecules, 2023)
Marks after values point to notes of the source that are not given here. Positions of bridges follow the written chain, without caps; N, C: chain ends. Non-standard residues stand in square brackets, D forms with d. Residues, ends and D or L forms follow the SMILES beside them. 2Abz = Nc1ccccc1C(=O)O; Dap = NC[C@H](N)C(=O)O

Tests used:
C57BL/6J mice [1] = assay: Ambulation (hyperlocomotion) in CLAMS apparatus; type: in vivo, mouse; conditions: for Effect on ambulation (hyperlocomotion): CycloAnt 3 or 10.6 mg/kg i.p., morphine 10 or 30 mg/kg i.p., 120 min
Method: (§1) Male C57Bl/6J mice were tested for respiratory effects using automated, computer-controlled Comprehensive Lab Animal Monitoring System (CLAMS) apparatus. Mice (n = 8) were habituated in closed apparatus cages (23.5 × 11.5 × 13 cm^3) for 30 min before being administrated with the hit i.p. at the experimented high dose of 3.0 mg/kg, and an even higher dose at 15 times of the ED50 value, 10.6 mg/kg, i.p. Mice were then returned to chambers, and their respiration rate (breaths/min) was measured for […] in 30 s intervals using a pressure transducer built into the enclosed, sealed CLAMS cage. The resultant change in pressure during mouse breathing was recorded to reveal the respiration rate (breaths/min).
(§2) Infrared beams located in the floor measured locomotion as the number of beam breaks. Respiration and locomotive data were averaged over 20 min periods for 120 min post-injection of the test compound. Data are presented as % vehicle response ± SEM, ambulation or breaths per minute.

[2] = system: panel of 47 protein targets, including GPCRs, kinases, nuclear hormone receptors, ion channels, and enzymes; assay: Eurofins DiscoverX SAFETYscan Safety47 panel, agonist and antagonist modes; conditions: 78 assays at 47 targets, other than MOR and DOR
Method: (§3) The potential interaction of CycloAnt with a panel of 47 protein targets, including GPCRs, kinases, nuclear hormone receptors, ion channels, and enzymes, was assessed by assays included in the SAFETYscan service from Eurofins DiscoverX. CycloAnt was tested in both agonist and antagonist modes for each representative GPCRs (see Supplemental Material S9–S11).
(§4) CycloAnt interactions with a broad set of molecular targets were determined with the Safety47 Panel Dose Response, using the SAFETYscan provided by Eurofins DiscoverX. This panel utilizes 78 assays at 47 protein targets, including GPCRs, kinases, nuclear hormone receptors, ion channels, and enzymes. […] CycloAnt only interacted with MOR and DOR in the panel, showing agonist activity at both receptors using the cAMP assay. […] This discrepancy on the function at DOR may be accounted for receptor reserve, as a very weak partial agonist/antagonist can appear as a full agonist when receptor reserve is present. […] Regardless, consistent with the SAFETYscan results, CycloAnt was not found to produce any significant biological activity at any other targets in this study than DOR and MOR.

mice [3] = assay: Antinociceptive tolerance after chronic dosing, 55 °C WWTW; type: in vivo, mouse; conditions: twice daily for 4 days, morphine 10 mg/kg (tested 30 min), CycloAnt 3 mg/kg i.p. (tested 20 min)
Method: (§5) Mice were randomly assigned to one of three groups and given saline (i.p.; n = 10), morphine (10 mg/kg, i.p.; n = 10) or CycloAnt (3 mg/kg, i.p.; n = 9) twice daily for 4 days, and once more on the morning of the fifth day. Mice were then tested in the 55 °C WWTW assay to assess for the loss of therapeutic efficacy (antinociceptive tolerance; see above). Two hours after this test, naloxone (10 mg/kg, i.p.) was administrated to all mice to precipitate opioid withdrawal. Mouse activity was digitally recorded and evaluated later for an established record of withdrawal behaviors for 15 min [39]. Immediately upon injection of naloxone, all mice were scored for number of jumps, forepaw tremor, wet dog shakes, straightening, rearing, forepaw licking, teeth chattering, and the presence (as +/−) and number of soft stools.

C57BL/6J mice [4] = assay: Respiration rate in CLAMS apparatus; type: in vivo, mouse; conditions: CycloAnt 3.0 or 10.6 mg/kg i.p.; morphine 10 or 30 mg/kg i.p.; 120 min period
Method: as §1, §2

MOR [5] = biological target: T1, MOR (Homo sapiens, UniProt P35372); assay: SAFETYscan cAMP assay, agonist mode, cells overexpressing MOR; type: cell-based; conditions: cells overexpressing receptor, read-out: MOR agonism EC50
T1 sequence (P35372 whole entry): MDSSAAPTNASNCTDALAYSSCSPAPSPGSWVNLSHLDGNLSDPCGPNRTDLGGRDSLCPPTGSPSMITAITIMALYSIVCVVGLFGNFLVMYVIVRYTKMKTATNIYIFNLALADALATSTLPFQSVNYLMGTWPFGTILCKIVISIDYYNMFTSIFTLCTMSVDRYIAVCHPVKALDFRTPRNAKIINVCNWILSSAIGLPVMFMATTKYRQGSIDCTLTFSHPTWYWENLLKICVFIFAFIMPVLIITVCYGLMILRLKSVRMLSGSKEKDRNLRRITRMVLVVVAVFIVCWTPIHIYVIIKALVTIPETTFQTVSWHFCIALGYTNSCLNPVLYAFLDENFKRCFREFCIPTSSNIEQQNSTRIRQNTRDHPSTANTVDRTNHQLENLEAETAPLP
Method: as §3, §4

DOR = DOR (Homo sapiens, UniProt P41143); assay: SAFETYscan cAMP assay, agonist mode, cells overexpressing DOR; type: cell-based; conditions: cells overexpressing receptor, read-out: DOR agonism EC50
DOR, sequence (P41143 whole entry): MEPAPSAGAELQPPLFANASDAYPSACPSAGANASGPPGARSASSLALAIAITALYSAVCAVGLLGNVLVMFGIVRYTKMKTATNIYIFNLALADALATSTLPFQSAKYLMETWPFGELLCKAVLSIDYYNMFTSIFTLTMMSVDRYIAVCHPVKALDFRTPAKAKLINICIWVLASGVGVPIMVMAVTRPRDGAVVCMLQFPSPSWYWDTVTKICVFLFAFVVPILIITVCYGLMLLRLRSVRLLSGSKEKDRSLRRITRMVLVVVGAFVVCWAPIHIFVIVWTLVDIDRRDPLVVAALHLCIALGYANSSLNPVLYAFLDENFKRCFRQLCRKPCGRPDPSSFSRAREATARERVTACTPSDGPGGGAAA
Method: as §3, §4

mice [6] = assay: Naloxone-precipitated opioid withdrawal (physical dependence); type: in vivo, mouse; conditions: for Forepaw Tremor: CycloAnt 3 mg/kg (n = 9) or morphine 10 mg/kg (n = 10) i.p. twice daily 4 days + day 5, naloxone 10 mg/kg i.p. 120 min later, scored 15 min, average; for Forepaw Licking Frequency / Jumping Frequency / Number of soft stools / Presence of diarrhea / Rearing Frequency / Straightening / Teeth Chattering Frequency / Wet Dog Shakes: as E25
Method: as §5

mice [7] = assay: Opioid-induced hyperalgesia, 48 °C warm water tail-withdrawal assay; type: in vivo, mouse; conditions: for Day 5 tail withdrawal latency, 48 °C warm water stimulus: after twice daily dosing for 4 days (morphine 10 mg/kg, CycloAnt 3 mg/kg i.p.), before day 5 dose, day 1 baselines 10 ± 1.14 s (morphine group), 9.1 ± 0.68 s (CycloAnt group), mean ± SEM, SEM; for Opioid-induced hyperalgesia after chronic administration: twice daily for 4 days, morphine 10 mg/kg, CycloAnt 3 mg/kg i.p., 48 °C
Method: The 48 °C warm water tail-withdrawal assay was performed as previously described, with the latency to withdraw the tail taken as the end point. The water temperature of 48 °C was selected for this work to ensure a moderate tail-withdrawal response, with a measurable decrease in withdrawal time possible, but also a significant temperature for hyperalgesic testing. […] After determining control latencies on day 1, mice received chronic morphine (10 mg/kg, i.p.) or CycloAnt (3 mg/kg, i.p.) treatment twice a day for 4 days, as described below. […] Mice were then tested prior to treatment on day 5 for evidence of induced hyperalgesia.

C57BL/6J male mice = assay: 55 °C warm water tail-withdrawal (WWTW) assay, antinociception; type: in vivo, mouse
Method: The 55 °C warm water tail-withdrawal assay was performed, as previously described, [52] to screen the library. Mixed-based samples were dissolved at a concentration of 5 mg/mL in saline containing 10% DMSO. Each sample was given to mice (n = 8) intraperitoneally (i.p.) at a dose of 5 mg/kg. At 0.5, 1, 2, 3.5, 5, 8 h post-administration of the samples, the tail-withdrawal latencies were measured for each sample. The average response time to tail-withdrawal at the six time points were then combined. The combined response time to withdrawal tail was used to determine the antinociceptive effect of each sample. A cutoff of 15 s was used to avoid tissue damage; those mice failing to withdraw their tails within this time were assigned a maximal antinociceptive score of 100%.
To determine antinociceptive activity of individual compounds, the tail-withdrawal latency was determined repeatedly every 10 min, following administration of the compounds for 1 h or until latencies returned to baseline values. At each time point, antinociception was calculated according to the following formula: % antinociception = 100 × (test latency − control latency)/(15 − control latency). Tail-withdrawal data points are the means of 8–16 mice, unless otherwise indicated, with SEM shown by error bars.
Percent antinociception was used to determine within-group effects and to allow comparison to baseline latency in tail-withdrawal experiments. The statistical significance of differences between ED50 values was determined by evaluation of the ED50 value shift via nonlinear regression modeling with Prism 10.0 software. Significant differences in behavioral data were analyzed by ANOVA (one-way or two-way with repeated measures (RM), as appropriate). Significant results were further analyzed with Sidak’s, Tukey’s, or Dunnett’s multiple comparison post hoc tests, as appropriate. All data are presented as mean ± SEM, with significance set at p < 0.05.

MOR [8] = biological target: T1, MOR; conditions: receptor-binding assay; cited from earlier work
From the text: However, that cyclic peptide has a sequence of Tyr-[D-Lys-Dap(Ant)-Tyr-Gly], differing from the sequence Tyr-[D-Lys-Dap(Ant)-Thr-Gly] identified in this study. The di ...

| Molecule | Effect on ambulation (hyperlocomotion) (C57BL/6J mice [1]) | Antinociceptive tolerance on day 5 (mice [3]) | Effect on breathing rate compared to vehicle (C57BL/6J mice [4]) | Forepaw Tremor (mice [6]) | Forepaw Licking Frequency (mice [6]) | Jumping Frequency (mice [6]) | Number of soft stools (mice [6]) | Presence of diarrhea (mice [6]) | Rearing Frequency (mice [6]) | Straightening (mice [6]) | Teeth Chattering Frequency (mice [6]) | Wet Dog Shakes (mice [6]) | Day 5 tail withdrawal latency, 48 °C warm water stimulus (mice [7]) | Opioid-induced hyperalgesia after chronic administration (mice [7]) | Time of peak antinociception after administration (C57BL/6J male mice; i.p., 55 °C WWTW) | also measured |
| --- | --- | --- | --- | --- | --- | --- | --- | --- | --- | --- | --- | --- | --- | --- | --- | --- |
| C[C@@H](O)[C@@H]1NC(=O)[C@H](CNC(=O)c2ccccc2N)NC(=O)[C@H](NC(=O)[C@@H](N)Cc2ccc(O)cc2)CCCCNC(=O)CNC1=O [CycloAnt, Tyr-[D-Lys-Dap(Ant)-Thr-Gly]] (H-Y[dK][Dap](2Abz)TG; lactam 2-C) | induced significant hyperlocomotor activity | significant reductions in the tail-withdrawal latency | did not significantly impair breathing | 23.7 † | 11.2 † | 1.89 † | 6.67 * | yes | 17.8 * | 1.22 | 0 † | 2.22 | 9.02 ± 0.83 s | did not induce significant OIH |  | Ambulation compared with morphine (C57BL/6J mice [1]; after 20 min to end of testing period, p < 0.05 Tukey): significantly less than those induced by morphine; Agonist or antagonist activity at other panel targets [2]: did not produce agonist or antagonist activity at any other target tested in this panel; EC50 (MOR [5]): 14 nM; EC50 (DOR): 3.36 nM |
| CN1CC[C@]23c4c5ccc(O)c4O[C@H]2[C@@H](O)C=C[C@H]3[C@H]1C5 [morphine, reference compound] | significantly increased ambulation | significant reductions in the tail-withdrawal latency | produced significant dose and time-dependent respiratory depression | 66 * | 1.7 * | 41.6 * | 5.4 * | yes | 22.2 * | 1.1 | 9.5 * | 1.3 | 4.35 ± 0.47 s | induced significant hyperalgesia | 30 min | ED50 (C57BL/6J male mice; Mus musculus, ip, 0.5 h, i.p., male C57BL/6J mice, 55 °C WWTW, at peak effect (morphine 30 min), read-out: Antinociceptive ED50 (and 95% confidence interval)): 4.12 mg/kg |
| Leu-[D-Lys-Dap(Ant)-Thr-Gly] (lariat or depsi) [CycloAnt-Leu, side-to-tail cyclic pentapeptide analog] |  |  |  |  |  |  |  |  |  |  |  |  |  |  | ≤ 20 min | Duration of significant antinociception compared to vehicle (C57BL/6J male mice; CycloAnt 3 mg/kg i.p., CycloAnt-Leu 100 mg/kg i.p., p < 0.05 Dunnett): 50 min; Fold less potent than morphine (ED50) (C57BL/6J male mice; i.p., 55 °C WWTW): 9.3 fold; Antinociceptive ED50 (and 95% confidence interval) (C57BL/6J male mice; i.p., male C57BL/6J mice, 55 °C WWTW, at peak effect (morphine 30 min)): 38.3 (18.7–127.1) mg/kg |
| Tyr-[D-Lys-Dap(Ant)-Tyr-Gly] |  |  |  |  |  |  |  |  |  |  |  |  |  |  |  | Binding affinity for the MOR (MOR [8]): 14 nM |
